Laboratory results from article PMC8413292, “Small-molecule polymerase inhibitor protects non-human primates from measles and reduces shedding” (Nature Communications, 2021).
Values joined by “and” are separate entries in the source; they are usually repeats but may differ in a detail not shown here. Equal entries are not always repeated.

Tested on: MV/FrankfurtMain.DEU/17.11 (genotype D8)
Test: White blood cell counts from whole blood
Format: in vivo, squirrel monkeys (Saimiri sciureus)
Conditions: for Cells [10^3/mm^3], white blood cells / Cells/ml, white blood cells / Counted Cells (Total), white blood cells: individual animals
Protocol: White blood cell counts, viral load quantification in PBMCs, and quantification of neutralizing antibody titers were performed as follows: for white blood cell counts, blood was diluted 1:100 in 3% acetic acid and cells were counted using a Neubauer chamber. For viral load quantification in PBMCs, blood was centrifuged at 3000 rpm for 15 min and serum was frozen at −20 °C until further use. Red blood cell lysis was performed and the remaining PBMCs were counted using a Neubauer chamber. Viral titers in PBMCs were quantified in quadruplicates using limited dilution method and calculated as TCID50/10^6 PBMCs. Neutralizing antibody titers were quantified by incubating MeV with 2-fold serial dilutions of the respective serum for 20 min at room temperature in quadruplicates. Vero/hSLAM cells were added and incubated for 3 days at 37 °C. Neutralizing antibody titers are expressed as the reciprocal of the highest serum dilution showing no signs of infection. For virus titration from throat swabs, swabs were placed in 150 μl DMEM with 3% penicillin/streptomycin and the titer was quantified by limited dilution method.

## Cn1nc(C(F)(F)F)cc1C(=O)Nc1ccc(S(=O)(=O)N2CCCC[C@H]2CCN2CCOCC2)cc1 [ERDRP-0519]
Prophylactic group, Row 5 (14 dpi)
  WBC group mean (Mean 2): 4.25 10^3cells/mm^3
Prophylactic group, Row 6 (17 dpi)
  WBC group mean (Mean 2): 4.583 10^3cells/mm^3
Prophylactic group, Row 7 (21 dpi)
  WBC group mean (Mean 2): 4.333 10^3cells/mm^3
Therapeutic (d3) group, 0 dpi
  Cells [10^3/mm^3], white blood cells: 4.25 10^3/mm^3 and 7.75 10^3/mm^3 and 4.75 10^3/mm^3 and 5.75 10^3/mm^3 and 5 10^3/mm^3
  Cells/ml, white blood cells: 7.75E+06 Cells/ml and 4.75E+06 Cells/ml and 5.75E+06 Cells/ml and 5.00E+06 Cells/ml and 4.25E+06 Cells/ml
  Counted Cells (Total), white blood cells: 17 and 31 and 19 and 23 and 20
Therapeutic (d3) group, 3 dpi
  Cells [10^3/mm^3], white blood cells: 8.75 10^3/mm^3 and 8.25 10^3/mm^3 (2×) and 6.5 10^3/mm^3 and 5 10^3/mm^3 and 4.5 10^3/mm^3
  Cells/ml, white blood cells: 8.25E+06 Cells/ml (2×) and 6.50E+06 Cells/ml and 5.00E+06 Cells/ml and 4.50E+06 Cells/ml and 8.75E+06 Cells/ml
  Counted Cells (Total), white blood cells: 35 and 33 (2×) and 26 and 20 and 18
Therapeutic (d3) group, 7 dpi
  Cells [10^3/mm^3], white blood cells: 3.25 10^3/mm^3 and 8.25 10^3/mm^3 and 4.75 10^3/mm^3 and 3.75 10^3/mm^3 and 7.25 10^3/mm^3 and 2.25 10^3/mm^3
  Cells/ml, white blood cells: 8.25E+06 Cells/ml and 4.75E+06 Cells/ml and 3.75E+06 Cells/ml and 7.25E+06 Cells/ml and 2.25E+06 Cells/ml and 3.25E+06 Cells/ml
  Counted Cells (Total), white blood cells: 13 and 33 and 19 and 15 and 29 and 9
Therapeutic (d3) group, 10 dpi
  Cells [10^3/mm^3], white blood cells: 1.75 10^3/mm^3 and 2.75 10^3/mm^3 and 3 10^3/mm^3 and 3.75 10^3/mm^3 and 4.5 10^3/mm^3 and 4.25 10^3/mm^3
  Cells/ml, white blood cells: 2.75E+06 Cells/ml and 3.00E+06 Cells/ml and 3.75E+06 Cells/ml and 4.50E+06 Cells/ml and 4.25E+06 Cells/ml and 1.75E+06 Cells/ml
  Counted Cells (Total), white blood cells: 7 and 11 and 12 and 15 and 18 and 17
Therapeutic (d3) group, 14 dpi
  Cells [10^3/mm^3], white blood cells: 6 10^3/mm^3 and 7.5 10^3/mm^3 and 5.5 10^3/mm^3 and 10.75 10^3/mm^3 and 12.75 10^3/mm^3 and 3.25 10^3/mm^3
  Cells/ml, white blood cells: 7.50E+06 Cells/ml and 5.50E+06 Cells/ml and 1.08E+07 Cells/ml and 1.28E+07 Cells/ml and 3.25E+06 Cells/ml and 6.00E+06 Cells/ml
  Counted Cells (Total), white blood cells: 24 and 30 and 22 and 43 and 51 and 13
Therapeutic (d3) group, 17 dpi
  Cells [10^3/mm^3], white blood cells: 4.25 10^3/mm^3 and 5 10^3/mm^3 and 4.75 10^3/mm^3 and 4.5 10^3/mm^3 and 3.75 10^3/mm^3
  Cells/ml, white blood cells: 5.00E+06 Cells/ml and 4.75E+06 Cells/ml and 4.50E+06 Cells/ml and 3.75E+06 Cells/ml and 4.25E+06 Cells/ml
  Counted Cells (Total), white blood cells: 17 and 20 and 19 and 18 and 15
Therapeutic (d3) group, 21 dpi
  Cells [10^3/mm^3], white blood cells: 4.5 10^3/mm^3 and 3.5 10^3/mm^3 and 10.25 10^3/mm^3 and 7.5 10^3/mm^3 and 2.25 10^3/mm^3
  Cells/ml, white blood cells: 3.50E+06 Cells/ml and 1.02E+07 Cells/ml and 7.50E+06 Cells/ml and 2.25E+06 Cells/ml and 4.50E+06 Cells/ml
  Counted Cells (Total), white blood cells: 18 and 14 and 41 and 30 and 9
Therapeutic (d3) group, Row 1 (0 dpi)
  WBC group mean (Mean 2): 5.5 10^3cells/mm^3
Therapeutic (d3) group, Row 2 (3 dpi)
  WBC group mean (Mean 2): 6.875 10^3cells/mm^3
Therapeutic (d3) group, Row 3 (7 dpi)
  WBC group mean (Mean 2): 4.917 10^3cells/mm^3
Therapeutic (d3) group, Row 4 (10 dpi)
  WBC group mean (Mean 2): 3.333 10^3cells/mm^3
Therapeutic (d3) group, Row 5 (14 dpi)
  WBC group mean (Mean 2): 7.642 10^3cells/mm^3
Therapeutic (d3) group, Row 6 (17 dpi)
  WBC group mean (Mean 2): 4.45 10^3cells/mm^3
Therapeutic (d3) group, Row 7 (21 dpi)
  WBC group mean (Mean 2): 5.61 10^3cells/mm^3
Therapeutic (d7) group, 0 dpi
  Cells [10^3/mm^3], white blood cells: 2.75 10^3/mm^3 and 3 10^3/mm^3 (2×) and 7.25 10^3/mm^3 and 5.25 10^3/mm^3
  Cells/ml, white blood cells: 3.00E+06 Cells/ml (2×) and 7.25E+06 Cells/ml and 5.25E+06 Cells/ml and 2.75E+06 Cells/ml
  Counted Cells (Total), white blood cells: 11 and 12 (2×) and 29 and 21
Therapeutic (d7) group, 3 dpi
  Cells [10^3/mm^3], white blood cells: 7.5 10^3/mm^3 and 12.5 10^3/mm^3 and 6.5 10^3/mm^3 and 7.75 10^3/mm^3 (2×) and 8.75 10^3/mm^3
  Cells/ml, white blood cells: 1.25E+07 Cells/ml and 6.50E+06 Cells/ml and 7.75E+06 Cells/ml (2×) and 8.75E+06 Cells/ml and 7.50E+06 Cells/ml
  Counted Cells (Total), white blood cells: 30 and 50 and 26 and 31 (2×) and 35
Therapeutic (d7) group, 7 dpi
  Cells [10^3/mm^3], white blood cells: 4 10^3/mm^3 (3×) and 5 10^3/mm^3 and 3 10^3/mm^3 and 3.25 10^3/mm^3
  Cells/ml, white blood cells: 4.00E+06 Cells/ml (3×) and 5.00E+06 Cells/ml and 3.00E+06 Cells/ml and 3.25E+06 Cells/ml
  Counted Cells (Total), white blood cells: 16 (3×) and 20 and 12 and 13
Therapeutic (d7) group, 10 dpi
  Cells [10^3/mm^3], white blood cells: 3 10^3/mm^3 and 2.75 10^3/mm^3 and 2.5 10^3/mm^3
  Cells/ml, white blood cells: 2.75E+06 Cells/ml and 2.50E+06 Cells/ml and 3.00E+06 Cells/ml
  Counted Cells (Total), white blood cells: 12 and 11 and 10
Therapeutic (d7) group, Row 1 (0 dpi)
  WBC group mean (Mean 2): 4.25 10^3cells/mm^3
Therapeutic (d7) group, Row 2 (3 dpi)
  WBC group mean (Mean 2): 8.458 10^3cells/mm^3
Therapeutic (d7) group, Row 3 (7 dpi)
  WBC group mean (Mean 2): 3.875 10^3cells/mm^3
Therapeutic (d7) group, Row 4 (10 dpi)
  WBC group mean (Mean 2): 2.708 10^3cells/mm^3
Therapeutic (d7) group, Row 5 (14 dpi)
  WBC group mean (Mean 2): 3.125 10^3cells/mm^3
Therapeutic (d7) group, Row 6 (17 dpi)
  WBC group mean (Mean 2): 4.25 10^3cells/mm^3
Therapeutic (d7) group, Row 7 (21 dpi)
  WBC group mean (Mean 2): 5.083 10^3cells/mm^3
